In article PMC3225327 (Journal of Biomedical Science, 2011):

Key:
[1] = tested on: high-affinity rolipram-binding sites (HARBSs) of guinea pig brain cell membranes; assay: Displacement of 2 nM [3H]-rolipram from high-affinity rolipram-binding sites (PDE4H)
Procedure: When the above-mentioned guinea pigs were sacrificed, the whole brains were removed and homogenized with a glass/Teflon homogenizer (Glas-Col, Terre Haute, IN, USA) in 10 volumes of cold medium (pH 6.5) containing 20 mM Bis-Tris, 2 mM benzamidine, 2 mM EDTA, 50 mM sodium chloride, 0.1 mM PMSF, and 1 mM dithiothreitol. At 4°C, the homogenate was centrifuged at 170 g for 5 min to remove connective tissues and blood vessels. The suspended homogenate was then re-centrifuged at 40,000 g for 30 min to separate the cytosolic and particulate portions. The particulate portion was re-suspended in a suspension at a concentration of 400 mg/ml (wet weight/volume), after washing three times with homogenizing buffer. The particulate portion mainly consisted of cell membranes. […] Briefly, the reaction buffer consisted of 50 mM Tris-HCl and 5 mM MgCl2 (pH 7.5). […] After 1 h, the reaction was terminated by moving the reaction vessel into crushed ice. Then the reaction mixture was transferred onto Whatman GF/B glass-fiber filters, which were soaked in a 0.3% polyethyleneimine solution in a mini-funnel.

[2] = tested on: ovalbumin-induced airway hyperresponsiveness; assay: Airway hyperresponsiveness, FlexiVent (RL, Cdyn) in OVA-sensitized and challenged mice; assay type: in vivo, BABL/c mice
Procedure: According to the schedule (Figure 1), ten female BABL/c mice in each group were sensitized by an intraperitoneal (i.p.) injection of 20 μg of OVA emulsified in 2.25 mg of an aluminum hydroxide gel, prepared from aluminum sulfate hexadecahydrate, in a total volume of 100 μl on days 0 and 14. On day 21, these mice were injected with (i.p.) 100 μl of a mixture of 1% OVA and Freund's complete adjuvant (1:1). Mice were challenged via the airway using 1% OVA in saline for 30 min on days 28, 29, and 30 by ultrasonic nebulization. After the last of OVA challenges, AHR was assessed on day 32 (48 h after 1% OVA provocation) in each group. […] For comparison, sham-treated mice were challenged with saline instead of 1% OVA (non-challenged). […] AHR was assessed using two methods: (1) in anesthetized ventilated mice, AHR was assessed as previously described by measuring changes in the airway resistance (RL, cmH2O/ml/sec) and lung dynamic compliance (Cdyn, ml/cmH2O) after challenge with aerosolized methacholine (MCh, 0.78~25 mg/ml) using the FlexiVent system (SCIREQ, Montreal, Quebec, Canada). Anesthetized (urethane 600 mg/kg and chloralose 120 mg/kg, i.p.), tracheostomized (stainless-steel cannula, 18 G) mice were mechanically ventilated (at 150 breaths/min, with a tidal volume of 10 ml/kg, positive end-expiratory pressure of 3 cmH2O). (2) in unrestrained animals by barometric plethysmography using a whole-body plethysmograph (WBP) and analyzed using software of Life Science Suite P3 Analysis Modules (Gould, LDS Test and Measurement LLC, Valley View, OH, USA). Mice were placed into the main chamber of the WBP, and the baseline enhanced pause (Penh) value was determined.

[3] = tested on: cytokines in bronchoalveolar lavage fluid; assay: Cytokine levels in BALF of sensitized and challenged mice (CBA kits); assay type: in vivo, BABL/c mice
Procedure: According to the schedule (Figure 1), ten female BABL/c mice in each group were sensitized by an intraperitoneal (i.p.) injection of 20 μg of OVA emulsified in 2.25 mg of an aluminum hydroxide gel, prepared from aluminum sulfate hexadecahydrate, in a total volume of 100 μl on days 0 and 14. On day 21, these mice were injected with (i.p.) 100 μl of a mixture of 1% OVA and Freund's complete adjuvant (1:1). Mice were challenged via the airway using 1% OVA in saline for 30 min on days 28, 29, and 30 by ultrasonic nebulization. After the last of OVA challenges, AHR was assessed on day 32 (48 h after 1% OVA provocation) in each group. […] For comparison, sham-treated mice were challenged with saline instead of 1% OVA (non-challenged). […] AHR was assessed using two methods: (1) in anesthetized ventilated mice, AHR was assessed as previously described by measuring changes in the airway resistance (RL, cmH2O/ml/sec) and lung dynamic compliance (Cdyn, ml/cmH2O) after challenge with aerosolized methacholine (MCh, 0.78~25 mg/ml) using the FlexiVent system (SCIREQ, Montreal, Quebec, Canada). Anesthetized (urethane 600 mg/kg and chloralose 120 mg/kg, i.p.), tracheostomized (stainless-steel cannula, 18 G) mice were mechanically ventilated (at 150 breaths/min, with a tidal volume of 10 ml/kg, positive end-expiratory pressure of 3 cmH2O). (2) in unrestrained animals by barometric plethysmography using a whole-body plethysmograph (WBP) and analyzed using software of Life Science Suite P3 Analysis Modules (Gould, LDS Test and Measurement LLC, Valley View, OH, USA). Mice were placed into the main chamber of the WBP, and the baseline enhanced pause (Penh) value was determined. […] Twenty-four hours after Penh determination, these mice were anesthetized with pentobarbital (50 mg/kg, i.p.), and the lungs were lavaged via a tracheal tube with PBS (1 × 1.0 ml, 37°C). After lavage, blood was collected from the jugular vein and allowed to sit so that it would coagulate. The collected bronchoalveolar lavage fluid (BALF) and coagulated blood were respectively centrifuged at 630 g for 7 min and at 3700 g for 10 min at 4°C. After centrifugation, the BALF and serum supernatants were stored at -20°C until determination of cytokines, including interleukin (IL)-2, IL-4, IL-5, tumor necrosis factor (TNF)-α, and interferon (IFN)-γ by flow cytometric methods using mouse T helper (Th)1/Th2 cytokine CBA kits, and of total immunoglobulin (Ig)E or IgG2a using ELISA kits (Pharmingen, San Diego, CA, USA) according to the respective recommendations of the manufacturers. OVA-specific IgE was measured as described previously. Wells were coated with 100 μl of OVA (20 μg/ml) instead of the capture antibody. Levels are expressed in arbitrary units, where 1 arbitrary unit equals the optical density of the sample divided by the optical density of unchallenged mouse serum or BALF (standard). The BALF pellet was resuspended in ACK lysing buffer (1.658 g NH4Cl, 0.2 g KHCO3 and 1.44 mg EDTA in 200 ml of water) to lyse the residual erythrocytes in each sample. The number of inflammatory cells was counted using a hemocytometer (Hausser Scientific, Horsham, PA, USA). Cytospun slides were stained and differentiated in a blinded fashion by counting at least 100 cells under light microscopy. All undetectable data (< 1 pg/ml) of cytokines were taken as 0 pg/ml.

[4] = 3~30 μmol/kg p.o., MCh 6.25~25 mg/ml

SMILES: COc1cc(O)c2c(c1)O[C@H](c1ccc(OC)c(OC)c1)CC2=O [HDME, hesperetin-7,3'-O-dimethylether]
- EC50 ([1]; 2 nM [3H]-rolipram, 30°C, 1 h, read-out: EC50 (PDE4H) for displacing [3H]-rolipram binding): 107 ± 39.5 µM
- PDE4H/PDE4L ratio (therapeutic ratio) ([1]; EC50 of [3H]-rolipram displacement / IC50 of PDE4 inhibition): 35.5
- RL value at the baseline ([2]; 3 μmol/kg p.o.): 1.06 ± 0.05 cmH2O/ml/s
- RL value of PBS nebulization ([2]; 3 μmol/kg p.o.): 1.10 ± 0.07 cmH2O/ml/s
- RL value at the baseline ([2]; 10 μmol/kg p.o.): 1.08 ± 0.06 cmH2O/ml/s
- RL value of PBS nebulization ([2]; 10 μmol/kg p.o.): 1.06 ± 0.04 cmH2O/ml/s
- RL value at the baseline ([2]; 30 μmol/kg p.o.): 1.09 ± 0.07 cmH2O/ml/s
- RL value of PBS nebulization ([2]; 30 μmol/kg p.o.): 1.07 ± 0.06 cmH2O/ml/s
- effect on MCh-induced decrease of lung dynamic compliance (Cdyn) [2, 4]: significantly suppressed
- effect on MCh-induced increase of airway resistance (RL) [2, 4]: significantly suppressed
- effect on level of IFN-γ in BALF ([3]; 30 μmol/kg p.o.): enhanced
- effect on increase in level of IL-2 in BALF ([3]; 3~30 μmol/kg p.o.): significantly suppressed
- effect on increase in level of IL-4 in BALF ([3]; 3~30 μmol/kg p.o.): significantly suppressed
- effect on increase in level of IL-5 in BALF ([3]; 3~30 μmol/kg p.o.): significantly suppressed
- effect on increase in level of TNF-α in BALF ([3]; 3~30 μmol/kg p.o.): significantly suppressed
